From publication PMC3994577 (BMC Infectious Diseases, 2014)
Like-named read-outs stand apart in the source and are kept apart here.

What was measured:
[1] = Early RBV plasma exposure (AUC0-4h) after a 600 mg first dose of RBV; assay type: in vivo, human (patients with chronic hepatitis C); conditions: for AUC(0-t): human, plasma, oral, 600 mg
Procedure: Patients were divided into two groups according to their HIV status. […] All patients gave their informed consent before they entered the study.
The plasma AUC was determined for each patient before the antiviral treatment or at the first day.
Results of AUC and normalized AUC were analyzed according to the two groups defined by the HIV status.
All quantitative variables were expressed as median and range. Comparisons of data were made using the non-parametric Mann–Whitney test. Statistical analysis was performed using the Statistica® software package (StatSoft Inc). […] A p value below 0.05 was considered as statistically significant.

[2] = cited from earlier work
[3] = single oral dose, co-administration of a high fat meal; cited from earlier work

Patients with AUC0-4h <1755 ([1]; HCV monoinfected patients (n = 63), threshold 1755 μg.h/L): 32%
patients with AUC0-4h above the threshold of 1755 μg.h/L ([1]; HIV-HCV coinfected patients): 39%
AUC(0-t) ([1]; HCV monoinfected patients (n = 63), single 600 mg RBV dose, median (range), read-out: AUC0-4h): 2030 ng·h/mL
AUC(0-t) ([1]; HCV monoinfected, HCV treatment naive patients, read-out: median AUC0-4h): 2430 ng·h/mL
AUC(0-t) ([1]; HCV monoinfected, non-responders, read-out: median AUC0-4h): 1870 ng·h/mL
AUC(0-t) ([1]; HCV monoinfected, relapsers, read-out: median AUC0-4h): 2020 ng·h/mL
AUC(0-t) ([1]; HIV-HCV coinfected patients (n = 23), single 600 mg RBV dose, median (range), read-out: AUC0-4h): 1470 ng·h/mL
AUC(0-t) ([1]; HIV-HCV coinfected patients with CD4 < 500/mm^3, median (range), read-out: AUC0-4h): 1270 ng·h/mL
AUC(0-t) ([1]; HIV-HCV coinfected patients with CD4 ≥ 500/mm^3, median (range), read-out: AUC0-4h): 1840 ng·h/mL
AUC(0-t) ([1]; RBV-AUC 0-4h (median), HCV monoinfected patients, abstract): 2030 ng·h/mL
AUC(0-t) ([1]; RBV-AUC 0-4h (median), HIV-HCV coinfected patients, abstract): 1470 ng·h/mL
AUC(0-t) ([1]; all three HIV-HCV coinfected patients with detectable HIV RNA, read-out: AUC0-4h): < 1760 ng·h/mL
Men with AUC0-4h <1755 ([1]; male HCV monoinfected patients): 43%
Men with AUC0-4h <1755 ([1]; male HIV-HCV coinfected patients): 65%
AUC(0-t) ([1]; male, male HCV monoinfected patients, single 600 mg dose, median (range), read-out: Men AUC0-4h): 1880 ng·h/mL
AUC(0-t) ([1]; male, male HIV-HCV coinfected patients, single 600 mg dose, median (range), read-out: Men AUC0-4h): 1410 ng·h/mL
Compound: NC(=O)c1ncn([C@@H]2O[C@H](CO)[C@@H](O)[C@H]2O)n1 [RBV, ribavirin]
patients with AUC0-4h below the 1755 μg.h/L threshold ([2]; historical study, monoinfected HCV genotype 1 patients): 58%
threshold for RBV plasma AUC from 0 to 4 h post-dose discriminating SVR from non-response ([2]; single dose of 600 mg, HCV monoinfected patients): 1755 µg·h/L
AUCtf (from time zero to the time of the final quantifiable sample) [3]: increased
Cmax [3]: increased
